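The compound was tested at five concentrations on cells cultured in 96-well plates, with a 48-hour exposure period. GI50 marks 50% less growth.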 Calls of active or inactive are those of the source. Rule as the data show it: active = GI50 up to about 1.1 µM and inactive = higher.
Key:
Test in all cases: NCI-60 cell line screen, 48 h
[1] = test system: A498
[2] = test system: HL-60
[3] = test system: OVCAR-3
[4] = test system: IGROV-1
[5] = test system: EKVX
[6] = test system: ACHN
[7] = test system: DLD-1
[8] = test system: RXF 393
[9] = test system: OVCAR-4
[10] = test system: HCC 2998
[11] = test system: HCT-116
[12] = test system: HOP-62
[13] = test system: UACC-257
[14] = test system: M19-MEL
[15] = test system: MOLT-4
[16] = test system: 786-0
[17] = test system: Malme-3M
[18] = test system: NCI-H522
[19] = test system: NCI-H23
[20] = test system: HCT-15
[21] = test system: OVCAR-8
[22] = test system: SK-MEL-28
[23] = test system: XF498
[24] = test system: DMS-273
[25] = test system: A549
[26] = test system: K562
[27] = test system: HT-29
[28] = test system: CCRF-CEM
[29] = test system: NCI-H226
[30] = test system: NCI-H460
[31] = test system: SF-268
[32] = test system: OVCAR-5
[33] = test system: SN12C
[34] = test system: COLO 205
[35] = test system: SF-295
[36] = test system: KM-20L2
[37] = test system: RPMI-8226
[38] = test system: SR
[39] = test system: TK-10
[40] = test system: LOX IMVI
[41] = test system: SK-MEL-5
[42] = test system: SNB-78
[43] = test system: UO-31
[44] = test system: SW-620
[45] = test system: LXFL 529
[46] = test system: U-251
[47] = test system: SNB-19
[48] = test system: DMS-114
[49] = test system: M14
[50] = test system: SK-MEL-2
[51] = test system: HOP-92
[52] = test system: KM12
[53] = test system: CAKI-1
[54] = test system: SNB-75
[55] = test system: SF-539
[56] = test system: SK-OV-3
[57] = test system: UACC-62
[58] = test system: HOP-18

With Cc1ccc([N+]2=NC(c3ccc([N+](=O)[O-])cc3)=NN(c3ccccc3)C2)cc1 the GI50 [1] was 95.9 µM (inactive), the GI50 [2] was 61.7 µM (inactive) and the GI50 [3] was > 100 µM (inactive). The GI50 [4] was 94.4 µM (inactive), the GI50 [5] was 43.7 µM (inactive) and the GI50 [6] was > 100 µM (inactive). The GI50 [7] was 25.7 µM (inactive), the GI50 [8] was 51.9 µM (inactive) and the GI50 [9] was 17.6 µM (inactive). The GI50 [10] was > 100 µM (inactive), the GI50 [11] was 59.7 µM (inactive) and the GI50 [12] was > 100 µM (inactive). The GI50 [13] was 47.1 µM (inactive), the GI50 [14] was > 100 µM (inactive) and the GI50 [15] was 21 µM (inactive). The GI50 [16] was > 100 µM (inactive), the GI50 [17] was > 100 µM (inactive) and the GI50 [18] was 16.4 µM (inactive). For the same molecule, the GI50 [19] was 38.4 µM (inactive), the GI50 [20] was 38.6 µM and the GI50 [21] was 42.1 µM (inactive). For the same molecule, the GI50 [22] was > 100 µM (inactive), the GI50 [23] was > 100 µM (inactive) and the GI50 [24] was 70.6 µM (inactive). The GI50 [25] was > 100 µM (inactive), the GI50 [26] was 20.3 µM (inactive) and the GI50 [27] was 57.9 µM (inactive). For the same molecule, the GI50 [28] was 24.3 µM (inactive), the GI50 [29] was > 100 µM (inactive) and the GI50 [30] was 41 µM (inactive). The GI50 [31] was > 100 µM (inactive), the GI50 [32] was > 100 µM (inactive) and the GI50 [33] was > 100 µM (inactive). For the same molecule, the GI50 [34] was > 100 µM (inactive), the GI50 [35] was 53.3 µM (inactive) and the GI50 [36] was > 100 µM (inactive). For the same molecule, the GI50 [37] was 57.4 µM (inactive), the GI50 [38] was 46.7 µM (inactive) and the GI50 [39] was > 100 µM (inactive). For the same molecule, the GI50 [40] was 60 µM (inactive), the GI50 [41] was 33.2 µM (inactive) and the GI50 [42] was 32.5 µM (inactive). For the same molecule, the GI50 [43] was 86.7 µM (inactive), the GI50 [44] was > 100 µM (inactive) and the GI50 [45] was 42.1 µM (inactive). The GI50 [46] was 72.8 µM (inactive), the GI50 [47] was 75.3 µM (inactive) and the GI50 [48] was 40.1 µM (inactive).

For Clc1ccccc1CN1COc2c(ccc3cccnc23)C1, the GI50 [1] was 8.24 µM (inactive), the GI50 [2] was 1.83 µM (inactive) and the GI50 [3] was 3.32 µM (inactive). The GI50 [4] was 3.5 µM (inactive), the GI50 [5] was 4.46 µM (inactive) and the GI50 [6] was 3.72 µM (inactive). The GI50 [7] was 4.66 µM (inactive), the GI50 [8] was 3.4 µM (inactive) and the GI50 [9] was 3.6 µM (inactive). For the same molecule, the GI50 [10] was 6.95 µM (inactive), the GI50 [11] was 3.07 µM (inactive) and the GI50 [12] was 2.69 µM (inactive). For the same molecule, the GI50 [49] was 2.59 µM (inactive), the GI50 [13] was 2.72 µM (inactive) and the GI50 [14] was 4.14 µM (inactive). The GI50 [50] was 1.72 µM (inactive), the GI50 [15] was 2.22 µM (inactive) and the GI50 [16] was 4.28 µM (inactive). The GI50 [17] was 4.78 µM (inactive), the GI50 [18] was 0.404 µM (active) and the GI50 [51] was 2.36 µM (inactive). For the same molecule, the GI50 [19] was 1.62 µM (inactive), the GI50 [20] was 2.06 µM and the GI50 [21] was 4.19 µM (inactive). The GI50 [22] was 3.61 µM (inactive), the GI50 [23] was 9.68 µM (inactive) and the GI50 [24] was 3.42 µM (inactive). The GI50 [25] was 3.75 µM (inactive), the GI50 [26] was 2.12 µM (inactive) and the GI50 [28] was 0.405 µM (active). The GI50 [29] was 3.87 µM (inactive), the GI50 [30] was 5.19 µM (inactive) and the GI50 [31] was 3.65 µM (inactive). For the same molecule, the GI50 [32] was 7.41 µM (inactive), the GI50 [33] was 6.93 µM (inactive) and the GI50 [52] was 3.98 µM (inactive). For the same molecule, the GI50 [34] was 8.38 µM (inactive), the GI50 [35] was 3.2 µM (inactive) and the GI50 [36] was 15.7 µM (inactive). For the same molecule, the GI50 [37] was 2.73 µM (inactive), the GI50 [39] was 10.4 µM (inactive) and the GI50 [40] was 4.4 µM (inactive). The GI50 [41] was 2.77 µM (inactive), the GI50 [42] was 3.37 µM (inactive) and the GI50 [53] was 2.88 µM (inactive). The GI50 [43] was 1.8 µM (inactive), the GI50 [54] was 7.91 µM (inactive) and the GI50 [55] was 3.59 µM (inactive). For the same molecule, the GI50 [56] was 8.05 µM (inactive), the GI50 [44] was 3.42 µM (inactive) and the GI50 [46] was 5.6 µM (inactive). For the same molecule, the GI50 [47] was 11.8 µM (inactive), the GI50 [57] was 3.09 µM (inactive) and the GI50 [48] was 2.67 µM (inactive).

With CC(CN(C)C)/C(=N\Nc1ccccc1)c1ccccc1 (centres undefined) the GI50 [1] was 29.2 µM (inactive), the GI50 [2] was 0.419 µM (active) and the GI50 [3] was 1.16 µM (inactive). For the same molecule, the GI50 [4] was 2.09 µM (inactive), the GI50 [5] was 1.3 µM (inactive) and the GI50 [6] was 0.242 µM (active). The GI50 [7] was 0.256 µM (active), the GI50 [8] was 11.4 µM (inactive) and the GI50 [9] was 0.794 µM (active). The GI50 [11] was 0.415 µM (active), the GI50 [12] was 0.767 µM (active) and the GI50 [49] was 1.46 µM (inactive). For the same molecule, the GI50 [13] was 2.12 µM (inactive), the GI50 [14] was 1.24 µM (inactive) and the GI50 [15] was 0.184 µM (active). For the same molecule, the GI50 [16] was 0.499 µM (active), the GI50 [17] was 10.7 µM (inactive) and the GI50 [18] was 0.889 µM (active). The GI50 [19] was 3.4 µM (inactive), the GI50 [20] was 0.0955 µM and the GI50 [21] was 12.7 µM (inactive). For the same molecule, the GI50 [22] was 2.02 µM (inactive), the GI50 [24] was 0.324 µM (active) and the GI50 [25] was 0.44 µM (active). The GI50 [26] was 0.112 µM (active), the GI50 [27] was 2.08 µM (inactive) and the GI50 [28] was 0.211 µM (active). For the same molecule, the GI50 [30] was 0.171 µM (active), the GI50 [31] was 0.22 µM (active) and the GI50 [32] was 1.38 µM (inactive). The GI50 [33] was 3.19 µM (inactive), the GI50 [52] was 0.0826 µM (active) and the GI50 [34] was 1.03 µM (active). For the same molecule, the GI50 [35] was 0.0436 µM (active), the GI50 [36] was 0.132 µM (active) and the GI50 [37] was 0.366 µM (active). The GI50 [38] was 0.33 µM (active), the GI50 [39] was 1.02 µM (active) and the GI50 [40] was 0.0456 µM (active). For the same molecule, the GI50 [41] was 3.3 µM (inactive), the GI50 [42] was 6.1 µM (inactive) and the GI50 [43] was 1.13 µM (inactive). The GI50 [54] was 13 µM (inactive), the GI50 [55] was 0.272 µM (active) and the GI50 [56] was 15.6 µM (inactive). For the same molecule, the GI50 [44] was 0.142 µM (active), the GI50 [58] was 10.7 µM (inactive) and the GI50 [45] was 0.0473 µM (active). The GI50 [46] was 1.07 µM (active), the GI50 [47] was 3.72 µM (inactive) and the GI50 [57] was 0.0755 µM (active). The GI50 [48] was 0.743 µM (active).

Reference: ChEMBL document CHEMBL1201862, “PubChem BioAssay data set” (2004)
